Key:
RORγ-LBD = biological target: T1, RORγ-LBD (Homo sapiens, UniProt P51449); experiment: RORγ-Ligand Binding Domain (LBD) TR-FRET Assay; format: biochemical; conditions: RORγ-LBD TR-FRET
T1 construct: made in house; host or cells: SF9 cells (baculovirus); used as diluted lysate
T1 sequence (P51449 269-508 limits assumed): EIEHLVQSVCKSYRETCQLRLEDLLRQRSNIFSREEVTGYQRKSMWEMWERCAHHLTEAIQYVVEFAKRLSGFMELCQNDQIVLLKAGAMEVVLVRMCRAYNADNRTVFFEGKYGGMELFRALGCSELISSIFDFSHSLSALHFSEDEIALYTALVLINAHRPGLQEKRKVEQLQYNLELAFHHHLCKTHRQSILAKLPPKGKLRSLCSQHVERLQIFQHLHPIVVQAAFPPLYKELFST
How it was run: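 This TR-FRET coactivator assay pairs baculovirus-expressed His-RORγ-LBD (~3 nM final) with biotin-SRC1 LXXLL peptide at 200 nM final in pH 7.0 Tris/KCl/EDTA/DTT/BSA buffer.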

Gal4-RORγ-LBD = biological target: T2, Gal4-RORγ-LBD (Homo sapiens, UniProt P51449); experiment: Gal4-RORγ Luciferase Reporter Assay in HEK-293T Cells; format: cell-based; conditions: HEK-293 cells, luciferase reporter, with ursolic acid
T2 construct: expressed in transfected cells
T2 sequence (P51449 269-508 limits assumed): T1 sequence (P51449 269-508 limits assumed)
How it was run: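 HEK-293 cells were co-transfected with Gal4-RORγ-LBD and a Gal4-luciferase reporter, then exposed overnight at 37 °C to compounds with […] ursolic acid present (0.2% DMSO). Luminescence was read with One-Glo after 10 min at RT, untreated signal was set as 100, and Max Response was taken as the upper plateau of a 4-parameter logistic fit.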

Row | SMILES | EC50 (RORγ-LBD) | EC50 (Gal4-RORγ-LBD)
1 | COC(=O)CC[C@H]1CN(S(=O)(=O)c2cccc(C(F)(F)F)c2)c2cc(/C=C(\C)c3c(F)cccc3Cl)cc(F)c2O1 [Example 49, (S,E)-Methyl 3-(6-(2-(2-chloro-6-fluorophenyl)prop-1-en-1-yl)-8-fluoro-4-((3-(trifluoromethyl)phenyl)sulfonyl)-3,4-dihydro-2H-benzo[b][1,4]oxazin-2-yl)propanoate] | < 500 nM | 500 to 5000 nM
2 | C/C(=C\c1cc(F)c2c(c1)N(S(=O)(=O)c1cccc(C(F)(F)F)c1)C[C@H](CCC(=O)O)O2)c1c(F)cccc1Cl [Example 50, (S,E)-3-(6-(2-(2-Chloro-6-fluorophenyl)prop-1-en-1-yl)-8-fluoro-4-((3-(trifluoromethyl)phenyl)sulfonyl)-3,4-dihydro-2H-benzo[b][1,4]oxazin-2-yl)propanoic acid] | < 500 nM | < 500 nM
3 | COC(=O)CC[C@H]1CN(S(=O)(=O)c2cccc(OC(F)F)c2)c2cc(/C=C(\C)c3c(F)cccc3Cl)cc(F)c2O1 [Example 51, Methyl (S,E)-3-(6-(2-(2-chloro-6-fluorophenyl)prop-1-en-1-yl)-4-((3-(difluoromethoxy)phenyl)sulfonyl)-8-fluoro-3,4-dihydro-2H-benzo[b][1,4]oxazin-2-yl)propanoate] | < 500 nM | < 500 nM
4 | C/C(=C\c1cc(F)c2c(c1)N(S(=O)(=O)c1cccc(OC(F)F)c1)C[C@H](CCC(=O)O)O2)c1c(F)cccc1Cl [Example 52, (S,E)-3-(6-(2-(2-Chloro-6-fluorophenyl)prop-1-en-1-yl)-4-((3-(difluoromethoxy)phenyl)sulfonyl)-8-fluoro-3,4-dihydro-2H-benzo[b][1,4]oxazin-2-yl)propanoic acid] | < 500 nM | 500 to 5000 nM
5 | COC(=O)CC[C@H]1CN(S(=O)(=O)c2cccc(OC(F)F)c2)c2cc(/C=C(\C)c3c(F)cccc3Cl)c(C)cc2O1 [Example 53, (S,E)-Methyl 3-(6-(2-(2-chloro-6-fluorophenyl)prop-1-en-1-yl)-4-((3-(difluoromethoxy)phenyl)sulfonyl)-7-methyl-3,4-dihydro-2H-benzo[b][1,4]oxazin-2-yl)propanoate] | < 500 nM | 500 to 5000 nM
6 | C/C(=C\c1cc2c(cc1C)O[C@@H](CCC(=O)O)CN2S(=O)(=O)c1cccc(OC(F)F)c1)c1c(F)cccc1Cl [Example 54, (S,E)-3-(6-(2-(2-Chloro-6-fluorophenyl)prop-1-en-1-yl)-4-((3-(difluoromethoxy)phenyl)sulfonyl)-7-methyl-3,4-dihydro-2H-benzo[b][1,4]oxazin-2-yl)propanoic acid] | < 500 nM | 500 to 5000 nM
7 | COC(=O)CC[C@H]1CN(S(=O)(=O)c2cccc(C(F)(F)F)c2)c2cc(/C=C(\C)c3c(F)cccc3Cl)c(C)cc2O1 [Example 55, Methyl (S,E)-3-(6-(2-(2-chloro-6-fluorophenyl)prop-1-en-1-yl)-7-methyl-4-((3-(trifluoromethyl)phenyl)sulfonyl)-3,4-dihydro-2H-benzo[b][1,4]oxazin-2-yl)propanoate] | < 500 nM | < 500 nM
8 | C/C(=C\c1cc2c(cc1C)O[C@@H](CCC(=O)O)CN2S(=O)(=O)c1cccc(C(F)(F)F)c1)c1c(F)cccc1Cl [Example 56, (S,E)-3-(6-(2-(2-Chloro-6-fluorophenyl)prop-1-en-1-yl)-7-methyl-4-((3-(trifluoromethyl)phenyl)sulfonyl)-3,4-dihydro-2H-benzo[b][1,4]oxazin-2-yl)propanoic acid] | < 500 nM | > 10000 nM
9 | COC(=O)CC[C@H]1CN(S(=O)(=O)c2cccc(C(F)(F)F)c2)c2c(ccc(/C=C(\C)c3c(F)cccc3Cl)c2C)O1 [Example 57, Methyl (S,E)-3-(6-(2-(2-chloro-6-fluorophenyl)prop-1-en-1-yl)-5-methyl-4-((3-(trifluoromethyl)phenyl)sulfonyl)-3,4-dihydro-2H-benzo[b][1,4]oxazin-2-yl)propanoate] | < 500 nM | > 10000 nM
10 | C/C(=C\c1ccc2c(c1C)N(S(=O)(=O)c1cccc(C(F)(F)F)c1)C[C@H](CCC(=O)O)O2)c1c(F)cccc1Cl [Example 58, (S,E)-3-(6-(2-(2-Chloro-6-fluorophenyl)prop-1-en-1-yl)-5-methyl-4-((3-(trifluoromethyl)phenyl)sulfonyl)-3,4-dihydro-2H-benzo[b][1,4]oxazin-2-yl)propanoic acid] | < 500 nM | 500 to 5000 nM
11 | COC(=O)CC[C@H]1CN(S(=O)(=O)c2cccc(OC(F)F)c2)c2c(ccc(/C=C(\C)c3c(F)cccc3Cl)c2C)O1 [Example 59, Methyl (S,E)-3-(6-(2-(2-chloro-6-fluorophenyl)prop-1-en-1-yl)-4-((3-(difluoromethoxy)phenyl)sulfonyl)-5-methyl-3,4-dihydro-2H-benzo[b][1,4]oxazin-2-yl)propanoate] | < 500 nM | 500 to 5000 nM
12 | C/C(=C\c1ccc2c(c1C)N(S(=O)(=O)c1cccc(OC(F)F)c1)C[C@H](CCC(=O)O)O2)c1c(F)cccc1Cl [Example 60, (S,E)-3-(6-(2-(2-Chloro-6-fluorophenyl)prop-1-en-1-yl)-4-((3-(difluoromethoxy)phenyl)sulfonyl)-5-methyl-3,4-dihydro-2H-benzo[b][1,4]oxazin-2-yl)propanoic acid] | < 500 nM | 500 to 5000 nM
13 | COC(=O)CC[C@H]1CN(S(=O)(=O)c2cccc(C(F)(F)F)c2)c2c(ccc(/C=C(\C)c3c(F)cccc3Cl)c2F)O1 [Example 61, Methyl (S,E)-3-(6-(2-(2-chloro-6-fluorophenyl)prop-1-en-1-yl)-5-fluoro-4-((3-(trifluoromethyl)phenyl)sulfonyl)-3,4-dihydro-2H-benzo[b][1,4]oxazin-2-yl)propanoate] | < 500 nM | 500 to 5000 nM
14 | C/C(=C\c1ccc2c(c1F)N(S(=O)(=O)c1cccc(C(F)(F)F)c1)C[C@H](CCC(=O)O)O2)c1c(F)cccc1Cl [Example 62, (S,E)-3-(6-(2-(2-Chloro-6-fluorophenyl)prop-1-en-1-yl)-5-fluoro-4-((3-(trifluoromethyl)phenyl)sulfonyl)-3,4-dihydro-2H-benzo[b][1,4]oxazin-2-yl)propanoic acid] | < 500 nM | 500 to 5000 nM
15 | COC(=O)CC[C@H]1CN(S(=O)(=O)c2cccc(OC(F)F)c2)c2c(ccc(/C=C(\C)c3c(F)cccc3Cl)c2F)O1 [Example 63, Methyl (S,E)-3-(6-(2-(2-chloro-6-fluorophenyl)prop-1-en-1-yl)-4-((3-(difluoromethoxy)phenyl)sulfonyl)-5-fluoro-3,4-dihydro-2H-benzo[b][1,4]oxazin-2-yl)propanoate] | < 500 nM | 500 to 5000 nM
16 | C/C(=C\c1ccc2c(c1F)N(S(=O)(=O)c1cccc(OC(F)F)c1)C[C@H](CCC(=O)O)O2)c1c(F)cccc1Cl [Example 64, (S,E)-3-(6-(2-(2-Chloro-6-fluorophenyl)prop-1-en-1-yl)-4-((3-(difluoromethoxy)phenyl)sulfonyl)-5-fluoro-3,4-dihydro-2H-benzo[b][1,4]oxazin-2-yl)propanoic acid] | < 500 nM | 500 to 5000 nM
17 | CCOc1ncc(Cl)cc1S(=O)(=O)N1C[C@H](CCC(=O)OC)Oc2ccc(/C=C(\C)c3c(F)cccc3Cl)cc21 [Example 67, Methyl (S,E)-3-(4-((5-chloro-2-ethoxypyridin-3-yl)sulfonyl)-6-(2-(2-chloro-6-fluorophenyl)prop-1-en-1-yl)-3,4-dihydro-2H-benzo[b][1,4]oxazin-2-yl)propanoate] | < 500 nM | 500 to 5000 nM
